This note sets out measurements from patent publication EP3009422A1, “Photo-switchable sulfonylureas and their uses” (Ludwig-Maximilians-Universität München, priority 2014, dated 2016).

Test [1] concerns mouse islets. The test is described as follows: Calcium imaging (fMCI) of beta cell activity in intact mouse islets. Type of test: cell-based. As to conditions: for EC50: mouse islets, concentration-response, read-out: EC50 for cytosolic Ca^2+ rises; for effect of high doses on the effects of JB253 on cytosolic Ca^2+: JB253-treated mouse islets, 405 nm, n = 4-6 recordings. As for the experimental part:
Male and female CD1 and C57BL6 mice (8-20 weeks) were maintained in a specific pathogen-free facility under a 12h light-dark cycle with ad libitum access to water and food. Animals were euthanized using a schedule-1 method and pancreatic islets isolated by collagenase digestion. All procedures were regulated by the Home Office according to the Animals (Scientific Procedures) Act 1986 of the United Kingdom (PPL 70/7349), and study approval granted by the Animal Welfare and Ethical Review Body (AWERB) of Imperial College. No randomization was used for animal experimentation, since mice were only used as tissue donors.
(§1) Islets were loaded for 30-45 min in fluo2-AM (10 µM) or for 2-5 min with X-Rhod 1 (5 µM) diluted with a mixture of DMSO (0.01%, wt/vol) and pluronic acid (0.001%, wt/vol; all Invitrogen) in a bicarbonate buffer containing in mM: 120 NaCl, 4.8 KCl, 1.25 NaH2PO4, 24 NaHCO3, 2.5 CaCl2, 1.2 MgCl2 and 5 D-glucose. fMCI was performed using a Zeiss Axiovert M200 fitted with a Nipkow spinning-disk head (Yokogawa CSU-10) and a 10x/0.3NA objective adjusted for chromatic aberration (EC Plan-Neofluar, Zeiss). Pulsed excitation (frequency = 0.5 Hz; exposure = 263 ms) was delivered at 491 nm and emitted signals recorded at 500-550 nm with a back-illuminated 16-bit EM-CCD camera (ImageEM 9100-13; Hamamatsu). During recording, islets were maintained at 35-36 °C in the presence of 50 µM JB253 using a custom-manufactured perfusion and heating system (Digital Pixel). Drugs were introduced through the perfusion system at the indicated time points and concentrations. Violet light was delivered by a 405 ± 5 nm laser coupled to the side port of the microscope and configured to fill the back of the objective with light using an Optospot (Cairn Research). Blue light was delivered using 440 ± 5 nm and 491 ± 5 nm diode lasers controlled by a laser merge module (Spectral Applied Research) to allow simultaneous exposure and acquisition. For single islet targeting, a 473 ± 5 nm laser was coupled to a custom-manufactured dichroic array (Cairn Research), allowing user-directed steering of a collimated laser spot across the field of view. Signals were normalized using F/Fmin where F is fluorescence at a given timepoint and Fmin is minimum fluorescence.
(§2) Data distribution was determined using the D'Agostino omnibus test. Non-multifactorial pairwise comparisons were made using either the Student's t-test. Interactions between multiple treatments were assessed using one-way ANOVA followed by pairwise comparisons using Bonferroni's post-hoc test. Effect sizes in islets/cells are usually sufficiently large that multiple animals/independent replication is a more important determinant of power in studies requiring statistical comparison. Non-linear regression was used to calculate the EC50 of normalized and log-transformed concentration-response curves. For [3H]-glibenclamide displacement assays, data points were fitted to the Hill equation before calculation of the halfmax value. In all cases, analysis was performed using Graphpad Prism (Graphpad Software) and IgorPro, and experimental numbers reported as independent biological replicates. No animals or data were excluded from the analysis and results were considered significant at P<0.05.

For test [2], the target named is T1, SUR1 (Rattus norvegicus, UniProt Q09429).
T1 construct: expressed in transfected cells; host or cells: HEK293t
The test is described as follows: [3H]-glibenclamide displacement radioassay in SUR1-expressing HEK293t cells. The following applies: displacement of [3H]-glibenclamide, SUR1-expressing HEK293t cells, n = 3. Type of test: binding. As for the experimental part: SUR1-expressing HEK293t cells were harvested and washed twice in assaying buffer containing in mM: 119 NaCl, 4.7 KCl, […], 1.2 KH2PO4, 1.2 MgSO4, 5 NaHCO3, and 20 HEPES, pH 7.4. In a 96-well plate, ∼200,000 cells/well were incubated for 50 min with [3H]-glibenclamide (PerkinElmer) and different concentrations of glimepiride (Sigma-Aldrich) or JB253. Incubation was terminated by rapid filtration through Whatman GF/C filters by means of a Brandel MWXR-96 TI harvester and filters were washed 3 times with ice-cold assay buffer. Radioactivity was counted 6 h after cell and filter lysis in 200 µL Rotiszint EcoPlus (Roth) using a Packard microbeta scintillation counter (PerkinElmer).
as §2
(In general: In a radioligand displacement assay an active substance lowers the binding of a labelled ligand.)

The test system of test [3] is human islets. Description: Calcium imaging in isolated human islets of Langerhans. It is filed as cell-based. The following applies: JB253-treated human islets, 440 nm and 491 nm. As for the experimental part: Human islets were isolated from deceased heart-beating donors (n = 3) at transplantation facilities in Pisa and Edmonton with the relevant national and local ethical permissions, including consent from next of kin where required, and cultured in RPMI supplemented with 5.5 mM D-glucose, 10% foetal calf serum (FCS), 100 U penicillin, 100 µg streptomycin and 0.25/µl fungizone (37 °C, 5% CO2). All studies involving human tissue were approved by the National Research Ethics Committee (NRES) London (Fulham), REC # 07/H0711/114.
as §1, with “For single islet targeting, a 473 ± 5 nm laser was coupled to a custom-manufactured dichroic array (Cairn Research), allowing user-directed steering of a collimated laser spot across the field of view.” left out

Test [4] concerns isolated murine islets. The test is described as follows: Insulin secretion from isolated islets (static incubation, radioimmunoassay). It is filed as cell-based, mouse. The following applies: diazoxide 250 µM, JB253 50 µM, illumination. As for the experimental part: Insulin secretion was measured from 6 islets per well, incubated at 37 °C for 30 min in 0.5 ml of Krebs-HEPES-bicarbonate (KHB) solution (containing in mM: 130 NaCl, 3.6 KCl, 1.5 CaCl2, 0.5 MgSO4, 0.5 NaH2PO4, 2 NaHCO3, 10 HEPES, and 0.1 % (wt/vol) BSA, pH 7.4) containing the indicated glucose concentration and tolbutamide (100 µM), glimeperide (50 µM), diazoxide (250 µM) and JB253 (50 µM). Illumination (λ = 405 ± 20 nm and 485 ± 6 nm) was performed using a Fluostar Optima microplate reader (BMG Labtech) set to deliver 30 s of light every 2 min to the designated wells. Insulin concentrations were determined in duplicate using specific radioimmunoassay (EMD Millipore).

For test [5], the system named is Epac2A. The test is described as follows: Epac2-camps FRET imaging in HEK293t cells. The following applies: HEK293t cells expressing full length Epac2-camps; JB253 as cis-JB253 (excitation 440 nm). It is filed as cell-based. As for the experimental part:
For EPAC2 imaging, HEK293t were transfected with the full length construct for […] containing the cAMP and sulfonylurea binding domains (obtained from Prof. […] Excitation was delivered at 440 nm and emitted signals captured using […] filters. FRET was calculated as the ratio of Cerulean (CFP):Venus (YFP) fluorescence. Signals were normalized using R/R0 where R is the ratio at a given timepoint and R0 is the minimum ratio.

T1 sequence (Q09429 whole entry): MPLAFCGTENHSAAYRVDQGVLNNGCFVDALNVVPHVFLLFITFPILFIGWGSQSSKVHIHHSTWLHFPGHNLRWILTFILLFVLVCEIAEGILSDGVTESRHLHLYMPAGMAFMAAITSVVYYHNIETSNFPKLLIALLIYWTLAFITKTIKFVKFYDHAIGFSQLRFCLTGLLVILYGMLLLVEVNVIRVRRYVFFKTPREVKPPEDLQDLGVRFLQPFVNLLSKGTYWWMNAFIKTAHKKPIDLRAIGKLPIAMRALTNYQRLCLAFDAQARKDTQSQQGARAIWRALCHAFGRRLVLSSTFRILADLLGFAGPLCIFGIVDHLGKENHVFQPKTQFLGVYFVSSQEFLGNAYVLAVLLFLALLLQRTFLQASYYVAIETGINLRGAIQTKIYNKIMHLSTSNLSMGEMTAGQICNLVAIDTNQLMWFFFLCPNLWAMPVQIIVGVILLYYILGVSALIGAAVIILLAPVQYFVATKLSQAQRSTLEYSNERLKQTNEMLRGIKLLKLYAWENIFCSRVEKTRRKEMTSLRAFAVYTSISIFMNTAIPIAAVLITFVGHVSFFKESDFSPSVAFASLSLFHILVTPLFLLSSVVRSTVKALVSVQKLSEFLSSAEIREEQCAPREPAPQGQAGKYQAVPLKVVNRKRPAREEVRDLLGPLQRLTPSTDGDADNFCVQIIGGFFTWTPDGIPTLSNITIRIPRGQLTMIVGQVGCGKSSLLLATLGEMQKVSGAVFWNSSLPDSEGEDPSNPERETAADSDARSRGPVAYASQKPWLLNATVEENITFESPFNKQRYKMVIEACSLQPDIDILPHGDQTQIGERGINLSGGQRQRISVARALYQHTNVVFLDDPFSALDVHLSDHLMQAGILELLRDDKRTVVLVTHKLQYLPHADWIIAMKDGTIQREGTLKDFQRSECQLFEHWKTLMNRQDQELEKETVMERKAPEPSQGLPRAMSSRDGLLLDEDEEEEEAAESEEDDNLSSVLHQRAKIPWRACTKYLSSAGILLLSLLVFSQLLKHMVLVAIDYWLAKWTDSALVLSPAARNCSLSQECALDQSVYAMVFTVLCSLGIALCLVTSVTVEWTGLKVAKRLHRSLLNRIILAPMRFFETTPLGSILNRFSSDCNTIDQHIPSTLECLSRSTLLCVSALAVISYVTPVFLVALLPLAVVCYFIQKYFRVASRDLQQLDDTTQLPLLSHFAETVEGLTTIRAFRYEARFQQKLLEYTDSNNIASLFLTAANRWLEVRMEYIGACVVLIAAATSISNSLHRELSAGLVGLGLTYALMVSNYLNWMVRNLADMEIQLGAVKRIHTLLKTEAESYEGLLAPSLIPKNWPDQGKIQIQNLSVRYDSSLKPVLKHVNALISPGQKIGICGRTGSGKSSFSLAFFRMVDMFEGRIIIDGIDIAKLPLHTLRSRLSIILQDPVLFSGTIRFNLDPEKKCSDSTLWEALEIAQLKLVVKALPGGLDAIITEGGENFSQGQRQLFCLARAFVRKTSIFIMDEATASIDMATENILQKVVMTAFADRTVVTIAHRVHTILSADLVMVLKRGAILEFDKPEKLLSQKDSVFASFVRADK

Broadly, the EC50 is the midpoint of the concentration-response curve. One may read the IC50 as the concentration at which inhibition is half-maximal. The low end stands for higher potency, the high end for lower potency. With `CCN(CC)c1ccc(/N=N\c2ccc(S(=O)(=O)NC(=O)NC3CCCCC3)cc2)cc1` [cis-JB253], in test [1], the EC50 is 675 nM. The compound further registered an IC50 in test [2] (cis-state may relax thermally during washing) of 14800 nM.

As to `CC1=NS(=O)(=O)c2cc(Cl)ccc2N1` [diazoxide, reference compound], the “effect of high doses on the effects of JB253 on cytosolic Ca^2+” value in test [1] is listed as “suppress”. Also, the “effect on JB253 effects on intracellular Ca^2+” value in test [3] is recorded as “reversed”. In test [4], the “effect on light-induced insulin secretion of JB253-treated islets” value is recorded as “partially reversed”.

As to `CCC1=C(C)CN(C(=O)NCCc2ccc(S(=O)(=O)NC(=O)N[C@H]3CC[C@H](C)CC3)cc2)C1=O` [glimepiride, reference compound], in test [5], the “ΔR/R0 (decrease in FRET)” value is on record as 0.052 AU. Also, the EC50 in test [1] was 399 nM. In test [2], this compound registered an IC50 of 8.3 nM.

Take `CCCCNC(=O)NS(=O)(=O)c1ccc(C)cc1` [tolbutamide, reference compound]: in test [1], the “effect of high doses on the effects of JB253 on cytosolic Ca^2+” value is “augment”. The “effect on JB253 effects on intracellular Ca^2+” value in test [3] is reported as “mimicked”.
